The target in data set [1] is T1, human recombinant PDE5 (Homo sapiens, UniProt O76074).
T1 construct: host or cells: Saccharomyces cerevisiae BJ2-54 (exemplary method)
Briefly: Inhibitory effect on cGMP-PDE (PDE5 IC50, one-step assay). The class given is biochemical. The settings on record: in vitro. As to the method: The compounds of structural formula (I) were tested for an ability to inhibit PDE5. The ability of a compound to inhibit PDE5 activity is related to the IC50 value for the compound, i.e., the concentration of inhibitor required for 50% inhibition of enzyme activity. The IC50 value for compounds of structural formula (I) were determined using recombinant human PDE5.
cGMP-PDE activity of compounds of the present invention was measured using a one-step assay adapted from Wells et al., Biochim. Biophys. Acta, 384, 430 (1975). The reaction medium contained 50 mM Tris-HCl, pH 7.5, 5 mM magnesium acetate, 250 μg/ml 5′-Nucleotidase, 1 mM EGTA, and 0.15 μM 8-[H^3]-cGMP. Unless otherwise indicated, the enzyme used was a human recombinant PDE5 (ICOS Corp., Bothell, Wash.).
Compounds of the invention were dissolved in DMSO finally present at 2% in the assay.

pIC50: −log10 of the molar value.

The term pIC50 denotes −log10 of the IC50, conventionally taken in molar units. A word on the melting point: it is the temperature of the solid-liquid transition. `CN1CCC(=O)N2[C@H](c3ccc4c(c3)OCO4)c3[nH]c4ccccc4c3C[C@H]2C1=O` [Example 4, (5aS,11R)-11-Benzo[1,3]dioxol-5-yl-7-methyl-5,5a,8,9,11,12-hexahydro-7H-7,10a,12-triaza-cyclohepta[b]fluorene-6,10-dione] showed a melting point of 179 to 182 °C. Also, the pIC50 in data set [1] was 6.23.

`O=C1N[C@H](CO)C(=O)N2[C@H](c3ccc4c(c3)OCO4)c3[nH]c4ccccc4c3C[C@H]12` [Example 8, (3R,6R,12aR)-6-Benzo[1,3]dioxo-5-yl-3-hydroxymethyl-2,3,6,7,12,12a-hexahydropyrazino[1′,2′:1,;6]pyrido[3,4-b]indole-1,4-dione] displayed a melting point of 194 to 200 °C. Moreover, the pIC50 in data set [1] was 7.55.

As to `NC(=O)CC[C@@H]1NC(=O)[C@H]2Cc3c([nH]c4ccccc34)[C@@H](c3ccc4c(c3)OCO4)N2C1=O` [Example 2, 3-((3S,6R,12aR)-6-Benzo[1,3]dioxol-5-yl-1,4-dioxo-1,2,3,4,6,7,12,12a-octahydropyrazino[1′,2′:1,6]-pyrido[3,4-b]indo-3-yl)propionamide], the melting point lay in the range of 78 to 82 °C. The pIC50 in data set [1] is 8.66.

For `CC(C)OC(=O)CC[C@@H]1NC(=O)[C@H]2Cc3c([nH]c4ccccc34)[C@@H](c3ccc4c(c3)OCO4)N2C1=O` [Example 7, 3-((3S,6R,12aR)-6-Benzo[1,3]dioxol-5-yl-1,4-dioxo-1,2,3,4,6,7,12,12a-octahydropyrazino[1′,2′:1,6]pyrido[3,4-b]indol-3-yl)-propionic acid isopropyl ester], the pIC50 in data set [1] was 9.70.

For the molecule `O=C1NNC(=O)N2[C@H](c3ccc4c(c3)OCO4)c3[nH]c4ccccc4c3C[C@H]12` [Example 3, (5aR,10R)-10-Benzo[1,3]dioxol-5-yl-5,5a,7,8,10,11-hexahydro-7,8,9a,11-tetraazabenzo[b]fluorene-6,9-dione], the melting point lay within 188 to 194 °C. Besides, in data set [1], the pIC50 is 6.95.

Consider `CC(C)(C)OC(=O)CC[C@@H]1NC(=O)[C@H]2Cc3c([nH]c4ccccc34)[C@@H](c3ccc4c(c3)OCO4)N2C1=O` [Example 5], for which the melting point was in the range of 222 to 227 °C. The negative logarithm of the IC50 (pIC50) in data set [1] is 9.22.

For the molecule `CN1C(=O)[C@H]2Cc3c([nH]c4ccccc34)C(c3ccc4c(c3)OCO4)N2C(=O)C1(C)C` (mixture of isomers) [Example 1, (12a,R)-6-Benzo[1,3]dioxol-5-yl,2,3,3-trimethyl-2,3,6,7,12,12a-hexahydropyrazino[1′,2′:1,6]-pyrido[3,4-b]indole-1,4-dione], the melting point lay within 225 to 235 °C. Also, the pIC50 in data set [1] is 6.79.

On to `O=C(O)CC[C@@H]1NC(=O)[C@H]2Cc3c([nH]c4ccccc34)[C@@H](c3ccc4c(c3)OCO4)N2C1=O` [Example 6, 3-((3S,6R,12aR)-6-Benzo[1,3]dioxol-5-yl-1,4-dioxo-1,2,3,4,6,7,12,12a-octahydropyrazino[1′,2′:1,6]pyrido[3,4-b]indole-3-yl)propionic acid], for which, in data set [1], the pIC50 is 9.00.
